In brackets after ≈: the same amount, converted by molar mass. Several values for one entry are separate records, joined by “and”; a condition that tells them apart may be missing. Equal entries are not always repeated.
Experiments:
[1] = CO2 binding constant (KCO2) calculated from the shift of the second reduction peak in CV; details: for K[CO2] / logK[CO2]: DMF; for ΔEpeak(2): difference between the second reduction peak potentials (IId·−/IId2−) in CO2 and N2
Method: (§1) Electrochemical measurements were conducted using a BioLogic VSP potentiostat (BioLogic Science Instruments). For the cyclic voltammetry measurements, glassy carbon (Ø=3 mm) was used as the working electrode, platinum wire was used as the counter electrode, silver wire was used as the pseudo-reference electrode and ferrocene was used as the internal reference. In a standard cyclic voltammetry measurement, the molecule of interest (2.5 mM) was dissolved in anhydrous DMF with 100 mM NBu4PF6 as the supporting salt. Typical cyclic voltammograms were collected at a scan rate of […]. To study the effects of ionic species on the redox behaviour of the sorbent molecules, 100 mM LiClO4, NaClO4, KClO4, NBu4ClO4, sodium triflate (NaOTf), or sodium bis(trifluoromethanesulfonyl)imide (NaTFSI) was used as the supporting electrolyte salt.
The CO2 binding constant (KCO2) was calculated by Eq 1: […]

[2] = Cyclic voltammetry of isoindigos in DMF (half-wave redox potentials under N2 or CO2); type: physicochemical; details: for E1/2 in N2 (first): first half-wave potential vs. Fc^+/Fc; for E1/2 in N2 (first) / E1/2 in N2 (second): 0.1 M NBu4PF6, N2, 298 K; for E1/2 in CO2 (first or single) / Experimental 1st half-wave potential in N2: vs. Fc^+/Fc; for E1/2 (IId/IId·−) in N2: Table 1, first electron transfer, N2, DMF; for Experimental 1st half-wave potential in N2: Table 5
Method: as §1

Solubility in DMF = type: physicochemical; details: for solubility: organic solvent or mixture
[3] = UV-vis absorption, optical band gap; type: physicochemical; details: UV-vis absorption (Kubelka-Munk spectra)
Method: UV-vis absorption spectra were recorded on a Thermo Scientific Genesys 10S UV-vis spectrophotometer.

[4] = Chronoamperometry: reaction rate constant between isoindigo radical anion and CO2; details: isoindigo 5 mM in DMF, 0.1 M NBu4PF6; for kbimolecular: first CO2 binding; for kf (20% CO2): forward rate constant
From the text: In electrochemistry, the Cottrell equation describes the current response (i) when the potential is a step function in time (t):
where i is current, n is the number of electrons transferred per molecule, A is the area of the electrode, C*0 is the bulk concentration of the redox-active isoindigo molecule, D is the diffusion coefficient, and t is time. The expected current for a diffusion limited electrochemical process following an ECE (electron transfer, chemical reaction, electron transfer) mechanism at a plane electrode under diffusion-controlled conditions is:
where n1 and n2 are the number of electrons transferred in the first and second step, respectively, and kf is the forward reaction rate constant of the chemical reaction. Here, to calculate kf after the first electron transfer, n2 and n1 are set to 1. Eq 3 then becomes:
The integrated Cottrell equation relates total charge Q with time for chronoamperometry: […]
Then, the constant k can be calculated, here k is assumed constant:
To calculate kf, the constant k is calculated using Eq 5 using potentiostatic measurements. Plugging in Eq 6, and rearranging Eq 4 gives:
The data for determining kf is shown in FIGS. 22 to 25 using 5 mM sorbent molecules in 0.1 M NBu4PF6 DMF electrolyte. The value k was determined using data under N2; kf was obtained under 1 bar 20% CO2 (0.0396 M CO2 in solution).

[5] = Flow-based EMCC prototype, cyclic CO2 capture/release
Method: In a typical experiment, the sorbent tank (20 mL scintillation vial with septum cap) was continuously bubbled with CO2 feed gas (balanced by N2) with the flow rate controlled by a mass flow controller (Alicat). For testing under simulated flue gas conditions, a gas mixture of 10% CO2+3% O2 balanced by N2 was used. An infrared-based CO2 sensor (SprintIR-W 100%) was connected at the gas exit to monitor the CO2 concentration continuously. The tank headspace was filled with plastic beads (McMaster-Carr) to limit the mixing time in the headspace. The Fc tank was kept air free. A two-channel peristaltic pump (Masterflex) circulated the sorbent and the Fc electrolyte to a commercial flow cell (Scribner) at a flow rate of 10 mL min^−1. The flow cell utilised graphite plates with 5 cm^2 interdigitated flow fields pressed against two pieces of carbon paper electrodes (Sigracet 28 AA) at each side of the graphite electrodes to distribute the liquid flow. A Nafion™ 115 membrane was sandwiched by two pieces of polypropylene and placed between the carbon paper electrodes. The cell was kept sealed by Kalrez fluoropolymer elastomer gaskets (0.02 inches thick). CO2 capture was conducted in a constant current mode while the release was carried out following a constant current/constant voltage protocol (that is, oxidizing the adduct at a constant current until a specific cut-off voltage followed by a constant voltage hold (the cut-off current for the constant voltage hold was 5% of the value used in the constant current oxidation). The cycling protocols of each experiment are provided in the corresponding figure captions.
For experiments using 6MCIId sorbent, we added 10 mM 6MCIId and 4 mM ferrocenium tetrafluoroboronate (FcBF4) into the CE tank to mitigate sorbent crossover and facilitate the reduction of the oxidised ferrocenium in the counter electrolyte, respectively. For less soluble 55DBIId and 66DBIId, the sorbent was dispersed in DMAc to form a slurry catholyte.

[6] = second half-wave potential vs. Fc^+/Fc, 2.5 mM in DMF
[7] = 2.5 mM in DMF, 0.1 M NBu4PF6, CO2, 298 K

Row | SMILES | K[CO2] ([1]; 298 K) [M⁻¹] | logK[CO2] ([1]; 298 K) | ΔEpeak(2) [1] [V] | E1/2 in N2 (first) ([2]; 2.5 mM in DMF) | E1/2 in N2 (second) [2, 6] [V] | E1/2 in CO2 (first or single) [2, 7] | Solubility in DMF (Solubility in DMF) [mM] | Optical band gap [3] [eV] | kbimolecular [4] | kf (20% CO2) [4] [s⁻¹] | logK[CO2] ([1]; Table 1) | E1/2 (IId/IId·−) in N2 [2] [V vs. Fc^+/Fc] | solubility (Solubility in DMF) [mM] | Experimental 1st half-wave potential in N2 [2] [V] | further results
1 | COC(=O)CNC(=O)c1ccc2c(c1)NC(=O)/C2=C1/C(=O)Nc2ccccc21 [6AIIdGly, Methyl isoindigo-6-carbonylglycinate] | 4.3e+08 | 8.63 | 0.469 | −1.17, V | −1.62 | −1.08 V | 606 (≈ 229 mg/mL) | 2.04 | 19.85 M⁻¹ s⁻¹ | 0.786 |  |  |  |  | 
2 | COC(=O)C(CO)NC(=O)c1ccc2c(c1)NC(=O)/C2=C1/C(=O)Nc2cc(Br)ccc21 (stereo not drawn) [6B6AIIdSer, Methyl 6-bromoisoindigo-6′-carbonylserinate] | 5.41e+08 | 8.73 | 0.475 | −1.11, V | −1.55 | −1.11 V | 568 (≈ 276 mg/mL) | 2.03 |  |  |  |  |  |  | Cycling stability ([5]; more than 40 cycles and approximately 200 hours of operation): negligible voltage decay
3 | COC(=O)c1ccc2c(c1)NC(=O)/C2=C1/C(=O)Nc2ccccc21 [6MCIId, Methyl isoindigo-6-carboxylate] | 7.78e+08 | 8.89 | 0.484 | −1.12, V | −1.62 | −1.09 V |  | 2.03 | 22.45 M⁻¹ s⁻¹ | 0.889 | 8.89 | −1.12 | 515 (≈ 165 mg/mL) |  | 
4 | O=C1Nc2ccc(Br)cc2/C1=C1\C(=O)Nc2ccc(Br)cc21 [55DBIId, 5,5′-Dibromoisoindigo] | 2.16e+09 | 9.33 | 0.510 | −1.09 V and −1.09, V | −1.61 | −1.09 V |  | 1.99 |  |  | 9.33 | −1.09 | 6.3 (≈ 2.65 mg/mL) | −1.09 | CO2 release at approximately −1 V vs. Fc^+/Fc in the presence of water ([2]; 10 vol % water): gets suppressed; Electrochemical behaviours in the presence of O2 ([2]; up to 16% CO2 and 20% O2, 2.5 mM in DMF, 0.1 M NBu4PF6): remained almost unaffected
5 | O=C1Nc2cc(Br)ccc2/C1=C1\C(=O)Nc2cc(Br)ccc21 [66DBIId, 6,6′-Dibromoisoindigo] | 38800 | 9.59 | 0.525 |  | −1.67 | −1.12 V |  | 2.06 | 18.64 M⁻¹ s⁻¹ | 0.738 | 9.59 | −1.14 |  | −1.14 | Sorbent recovered from the sorbent electrolyte after cycling ([5]; after 11 capture/release cycles over 50+ hours): 87%; Sorbent isomerized into cis-isomer after cycling ([5]; after 11 capture/release cycles over 50+ hours, 1H NMR): approximately 24%
6 | COC(=O)c1ccc2c(c1)NC(=O)/C2=C1/C(=O)Nc2cc(C(=O)OC)ccc21 [66DMCIId, Dimethyl isoindigo-6,6′-dicarboxylate] | 1.17e+08 | 8.07 | 0.435 | −0.97, V | −1.41 | −0.91 V | <2.5 | 2.02 |  |  |  |  | < 2.5 |  | Positive shift of E1/2 under CO2 compared to unmodified IId ([2]; under CO2, DMF): 300 mV
7 | O=C1Nc2ccccc2/C1=C1\C(=O)Nc2ccccc21 [IId, Isoindigo] | 2.19e+09 | 9.34 | 0.511 | −1.29 V and −1.29, V | −1.79 | −1.21 V |  | 2.04 |  |  | 9.34 | −1.29 | ~230 (≈ 60.3 mg/mL) | −1.29 | 
8 | CCCN1C(=O)/C(=C2/C(=O)N(CCC)c3cc(Br)ccc32)c2ccc(Br)cc21 [NNDPr66DBIId, N,N′-Dipropyl-6,6′-dibromoisoindigo] | 74800 | 4.48 | 0.247 | −1.07, V | −1.61 | −1.08, V |  | 2.02 | 3.3 M⁻¹ s⁻¹ and 3.31 M⁻¹ s⁻¹ | 0.131 | 4.87 | −1.07 |  |  | E1/2 in CO2 (second) ([2]; second half-wave potential vs. Fc^+/Fc, 2.5 mM in DMF, 0.1 M NBu4PF6, CO2, 298 K): −1.34 V

Source: patent US20250128203A1, “MODIFIED REDOX-ACTIVE SORBENTS FOR ELECTROCHEMICAL CARBON DIOXIDE SEPARATION” (The Johns Hopkins University, priority 2023, published 2025)
